From the CheMixHub viscosity set
Where “and” joins values, the source holds several entries; their conditions need not be identical. Identical values can stand only once.

What was measured:
[1] = xn = mol fraction of the nth substance listed

Oc1ccccc1
Conditions	viscosity
293.15 K, 101 kPa	11.04 mPa·s and 11.04 mPa·s and 11.04 mPa·s
293.2 K, 101 kPa	11.04 mPa·s
293.25 K, 101 kPa	11.04 mPa·s and 11.04 mPa·s
298 K, 101.3 kPa	9.41 mPa·s
298.15 K, 101 kPa	8.945 mPa·s
302.95 K, 101 kPa	7.09 mPa·s and 7.1 mPa·s
303 K, 101.3 kPa	7.553 mPa·s
303.05 K, 101 kPa	7.09 mPa·s
303.1 K, 101 kPa	7 mPa·s
303.15 K, 101.33 kPa	7 mPa·s
308 K, 101.3 kPa	6.106 mPa·s
308.1 K, 101 kPa	5.55 mPa·s
308.15 K, 101 kPa	6.032 mPa·s and 4.649 mPa·s
308.15 K, 101.33 kPa	5.969 mPa·s
313 K, 101.3 kPa	4.971 mPa·s
313.05 K, 101 kPa	4.79 mPa·s
313.25 K, 101 kPa	4.74 mPa·s
313.35 K, 101 kPa	4.74 mPa·s
318 K, 101.3 kPa	4.056 mPa·s
322.95 K, 101 kPa	3.28 mPa·s
323.1 K, 101 kPa	3.2 mPa·s and 3.2 mPa·s
323.15 K, 101.33 kPa	3.2 mPa·s and 3.432 mPa·s

CNc1ccccc1
Conditions	viscosity [mPa·s]
298 K, 101 kPa	1.963
298 K, 101.3 kPa	1.963
298.15 K, 101 kPa	2.02
303 K, 101.3 kPa	1.717
303 K, 101.33 kPa	1.751
303.15 K, 101 kPa	1.55
308 K, 101.3 kPa	1.538
308.15 K, 101.33 kPa	1.515
313 K, 101.3 kPa	1.386
318 K, 101.3 kPa	1.251
323.15 K, 101 kPa	1.401

C=CC(C)O (centres undefined)
101.32 kPa
Conditions	viscosity [mPa·s]
308.15 K	1.294
313.15 K	1.144
318.15 K	1.015
323.15 K	0.9032

NCCCN
viscosity
Conditions	293.15 K	298.15 K	303.15 K	308.15 K	313.15 K	318.15 K	323.15 K
100 kPa	1.965 mPa·s and 1.96 mPa·s	1.769 mPa·s and 1.74 mPa·s	1.506 mPa·s and 1.57 mPa·s	1.465 mPa·s and 1.39 mPa·s	1.259 mPa·s and 1.26 mPa·s	1.181 mPa·s and 1.07 mPa·s	–
101 kPa	–	–	1.608 mPa·s and 1.594 mPa·s	1.445 mPa·s and 1.423 mPa·s	1.306 mPa·s and 1.297 mPa·s	1.191 mPa·s and 1.181 mPa·s	1.09 mPa·s and 1.07 mPa·s
101.3 kPa	2.03 mPa·s	1.83 mPa·s	1.62 mPa·s	1.42 mPa·s	1.23 mPa·s	1.13 mPa·s	–
101.33 kPa	1.93 mPa·s	1.67 mPa·s	1.52 mPa·s and 1.594 mPa·s	1.37 mPa·s and 1.423 mPa·s	1.22 mPa·s and 1.297 mPa·s	1.11 mPa·s and 1.181 mPa·s	1.07 mPa·s

CCCCCCN
viscosity
Conditions	303.15 K	308.15 K	313.15 K
101 kPa	0.6979 mPa·s and 0.729 mPa·s and 0.7123 mPa·s	0.6 mPa·s and 0.6 mPa·s	0.6134 mPa·s
101.33 kPa	0.7123 mPa·s	–	0.6134 mPa·s

COC(=O)OC + CCCCCCCC
[1], 298.15 K, 101.3 kPa
Conditions	viscosity [mPa·s]
x1 = 0.0701	0.503
x1 = 0.1113	0.495
x1 = 0.2006	0.483
x1 = 0.2669	0.476
x1 = 0.2955	0.476
x1 = 0.4863	0.481
x1 = 0.6318	0.494
x1 = 0.6706	0.499
x1 = 0.7712	0.517
x1 = 0.8602	0.543
x1 = 0.9459	0.569

Oc1ccccc1 + CCCCN(CCCC)CCCC
[1], 298.16 K, 101 kPa
Conditions	viscosity [mPa·s]
x1 = 0.5219	9.41
x1 = 0.6008	14.9
x1 = 0.6531	23.52
x1 = 0.6723	27.66
x1 = 0.7083	43.54
x1 = 0.7386	64.37
x1 = 0.7532	78.43
x1 = 0.7783	108.3
x1 = 0.7981	126.2
x1 = 0.8207	131.2
x1 = 0.8248	125.7
x1 = 0.8491	110.5
x1 = 0.8704	84.32
x1 = 0.9022	56.08
x1 = 0.9213	40.37
x1 = 0.9711	20.65

ClC(Cl)C(Cl)Cl + CCCCCC
[1], 303.15 K, 101 kPa
Conditions	viscosity [mPa·s]
x1 = 0.115	0.316
x1 = 0.2303	0.363
x1 = 0.2991	0.411
x1 = 0.4277	0.516
x1 = 0.5521	0.633
x1 = 0.6234	0.71
x1 = 0.7182	0.83
x1 = 0.8039	0.966
x1 = 0.8856	1.133
x1 = 0.9344	1.256

CNc1ccccc1 + CCC(=O)O
[1], 308.15 K, 101.33 kPa
Conditions	viscosity [mPa·s]
x2 = 0.1405	1.689
x2 = 0.2649	1.817
x2 = 0.3831	1.959
x2 = 0.4886	2.058
x2 = 0.5912	2.143
x2 = 0.6846	2.115
x2 = 0.7714	1.931
x2 = 0.8525	1.631
x2 = 0.8913	1.45
x2 = 0.9291	1.226
x2 = 0.9645	1.053
